Measured values reported in patent US5688936A, “Vesicle membrane transport proteins” (priority 1993, dated 1997).
“Also recorded” adds a separate entry of the source.

Experiments:
[1] = tested on: PC12 cells; experiment: cells; conditions: Rattus norvegicus, PC-12, 1 h, read-out: [^3 H]-Dopamine Uptake (PC12)
Description: The effects of various pharmacologic agents were tested to determine whether the properties of the protein encoded by the mpp^res cDNA corresponded with those expected for the chromaffin granule amine transport protein. […] The cells were pre-incubated in Krebs-Ringer buffer containing 1 μM pargyline and the dose of the drug indicated for 15 minutes. […] Values were determined from three separate wells and the mean was expressed as percent of control uptake±standard deviation.

[2] = tested on: MPP^+ -resistant CHO cells; experiment: MTT cytotoxicity assay in MPP+-resistant transfected CHO cells; type: cell-based, Chinese hamster; conditions: 1 μM reserpine, MPP+-resistant CHO cells
Description: Differential susceptibility to the respiratory complex I inhibitors MPP^+ and rotenone was shown by measuring toxicity by measuring general cell dehydrogenase activity with reduction of a tetrazolium dye (MTT) in a spectrophotometric plate assay as described by Hansen et al., J. Immunol. Methods 119:203-210 (1989). Briefly, a stock solution of MTT (3,(4,5-dimethylthiazol-2-yl)2,5-diphenyltetrazolium bromide) was dissolved at a concentration of 5 mg/ml in sterile phosphate buffered saline at room temperature. To each well was added 25 μl of the stock solution. After two hours of incubation at 37° C., 100 μl of extraction buffer (20% w/v of SDS in a solution of 50% each dimethylformamide and demineralized water with the pH adjusted to 4.7 with acetic acid and HCl). After an overnight incubation at 37° C., the optical densities at 570 nm were measured using a multiscanner, employing the extraction buffer as the blank. This assay was carried out in triplicate on 96-well plates (NUNC, Denmark). MPP^+ and rotenone at the concentrations indicated in FIG. 6a and 6b, respectively, was added to wild-type and MPP^+ -resistant CHO cells at approximately 50% confluence, and toxicity was assayed after 2-3 days by measuring general cell dehydrogenase activity with the reduction of the tetrazolium dye MTT (3,(4,5-dimethylthiazol-2-yl)2,5-diphenyl-tetrazolium bromide). After addition of the dye at a final concentration of 1 mg/ml, the cells were incubated for two hours at 37° C. and the formazan product was solubilized in 10% sodium dodecyl sulfate (SDS). The plates were maintained at 37° C. for an additional twenty hours and the optical density was determined in an ELISA plate reader at a test wavelength of 570 nm, a reference wavelength of 630 nm and a calibration setting of 1.99. All determinations were performed in triplicate and expressed as the mean, with the error bars representing standard deviation (FIG. 6a and 6b).
To determine whether an alteration in the process of respiration was responsible for the resistance to MPP^+, the effects of other known respiratory inhibitors were examined. […] Thus, if the resistance were due to a change in the site of action, the transfected cells should also show resistance to rotenone. […] However, rotenone is considered to have its selected effect on respiration at relatively low doses, and an additional, less specific effect at higher doses.
Therefore, the toxicity of MPP^+ to transfected cells in the presence of 1 μM reserpine was examined.

[3] = tested on: transfected CHO cells; experiment: Survival/selection/growth of transfected CHO cells in MPP+; type: cell-based, Chinese hamster; conditions: reserpine concentration not stated
Description: Using the above methods, the PC12 cDNA library constructed in the plasmid expression vector CDM8 was transfected into CHO cells. Using the selectable marker RSV- neo (Walker, Weizmann Institute, Israel), […] independent stable transformants were obtained after selection in the neomycin analogue G418 at 400 μg/ml effective dose. These cells were then selected at 40% confluence in 1 mM MPP^+. […] However, at four weeks, a colony of cells without refractile inclusions appeared and rapidly covered the plate. The apparently normal growth of these cells in the presence of 1 mM MPP^+ stands in marked contrast to all of the resistant clones obtained without transfection, which grew very slowly if at all. […] However, at 1 mM MPP^+, the resistant cells did show some toxicity, particularly when the assay was performed at higher cell density.
To identify the cDNA sequences responsible for conferring resistance to MPP^+, integrated plasmids were rescued from the primary CHO transformant obtained as described above in Example 1. […] The primary MPP^+ -resistant CHO transformant was amplified in culture and following cell lysis in 5M guanidinium isothiocyanate, the high molecular weight DNA prepared by repeated precipitation in isopropanol. After digestion with Not I, which cleaves the CDM8 vector once downstream of the cDNA insertion site as well as at rare eight-nucleotide recognition sites elsewhere in the genome, the DNA was religated and transformed into E. coli by electroporation as described by Stern-Bach et al., J. Biol. Chem. 265:3961-3966 (1990). Four pools of the derived plasmids containing approximately 50 colonies each were transfected into CHO cells and after two days were selected in 1 mM MPP^+. Four weeks later, one pool gave rise to several MPP^+ -resistant colonies, two pools gave rise to 1-2 colonies and the fourth pool and CDM8 vector gave rise to no healthy, resistant colonies. Restriction enzyme analysis of the plasmids in the pool conferring the highest frequency of resistance to MPP^+ indicated three independent clones of 1.0, 1.3 and 2.5 kb. […]

[4] = tested on: bacterial BMR transporter; conditions: cited from earlier work

With `COC(=O)[C@H]1[C@H]2C[C@@H]3c4[nH]c5cc(OC)ccc5c4CCN3C[C@H]2C[C@@H](OC(=O)c2cc(OC)c(OC)c(OC)c2)[C@@H]1OC` [reserpine] the activity at 1 µM [1] was 23 ± 2%, the “reversal of MPP+ resistance” value [2] was “Dramatic reversion to wild-type CHO sensitivity” and the “reversal of MPP+ resistance of transformants” value [3] was “reversal of MPP^+ resistance; also recorded: reversible; also recorded: reversed”. The “inhibition of bacterial BMR transporter” value [4] was “inhibits”.
